Format in all cases: cell-based
Data set [1] has as its target T1, CXCR4 (Homo sapiens (Human), UniProt P61073). Briefly: Cellular impedance change induced by SDF-1a (cellular dielectric spectroscopy). Conditions: HeLa cells, endogenous CXCR4, EC50 concentration of SDF-1a, 30 minutes; read-out: Antagonist IC50. Here is the method:
This assay measures the change in impedance that occurs when cells are stimulated with SDF-1a. Changes in shape and cytoskeleton result in a change of impedance that is dependent on the activation of the CXCR4 receptor. This assay is contracted to MDS Pharma Services and performed as described in http://discovery.mdsps.com/Catalog/Services/Screening/CellKey/AssayDetails.aspx?id=7 (Assay 930070). Briefly, human HeLa cells expressing endogenous CXCR4 are grown in vitro and receptor activation in live cells is measured using cellular dielectric spectroscopy (CDS).

Data set [2] concerns the target T1, CXCR4. Briefly: Functional calcium mobilization assay (SDF-1α induced). To be noted: for IC50: read-out: Ca Flux IC50. The protocol: Functional modulation of CXCR4 was determined by calcium mobilization assay using leukemic lymphoid CEM cells, which naturally express high levels of CXCR4. Generally, the assay is carried out as follows: Cells are grown in vitro to confluency. On the day of the assay, cells are removed from the incubator, culture medium removed and replaced with a calcium sensitive dye (Calcium3 assay kit; Molecular Devices, Sunnyvale, Calif.). The cells are allowed to dye load for 45-60 min at 37° C. in the cell culture incubator and then allowed to equilibrate to room temperature for no more than 15 min before assay.
Compound plates were generated containing up to 3% dimethyl sulfoxide in media kept at room temperature. Test compounds were added to the cells at a 1:3 dilution, and calcium mobilization was measured using a Flex Station fluorescence imager (Molecular Devices). This first read was used to determine direct agonist activation of the CXCR4 receptor by the test compounds. […] Full dose response curves were generated daily for SDF-1a to calculate IC50 concentrations. The IC50 values are reported. In cases, where one was not determined, a percent inhibition at the 1 μM concentration was extrapolated.
Functional calcium mobilization assay was conducted as described in Example 27.
In general terms: A change in cytosolic calcium serves as a functional read-out for many receptors and channels.

A short description of data set [3]: Cytotoxicity assay, 6 days. Conditions: human, CCRF-CEM cells. The protocol: Cytotoxicity of the compounds was assessed by the following assay. CCRF-CEM cells in media (RPMI 1640, 15% FBS, Pen/Strep., 1% non-essential amino acids) are incubated with various concentrations of test compound for 6 days undisturbed. Cell number relative to no compound controls is determined using either Serotec's “Alamar blue” per manufacturers protocol or Promega's “Cell Titer 96 Aqueous One Solution Cell Proliferation Assay” kit per manufacturers protocol. The number cells not surviving after test compound administration is determined for each concentration tested and the EC50 (concentration of compound in which 50% of the cells survive) is determined

Data set [4] deals with hERG potassium channel (Homo sapiens (Human), UniProt Q12809). Nature of the data set: hERG potassium channel current, automatic patch clamp. Conditions: human, mammalian cells expressing hERG potassium channel. Here is the method: (§1) The in vitro effects of the selected compounds on the hERG (human ether-á-go-go-related gene) potassium channel current (a surrogate for IKr, the rapidly activating, delayed rectifier cardiac potassium current) expressed in mammalian cells were evaluated at room temperature using the PatchXpress 7000A (Molecular Devices), an automatic parallel patch clamp system.
Chain of hERG potassium channel (Q12809 whole entry): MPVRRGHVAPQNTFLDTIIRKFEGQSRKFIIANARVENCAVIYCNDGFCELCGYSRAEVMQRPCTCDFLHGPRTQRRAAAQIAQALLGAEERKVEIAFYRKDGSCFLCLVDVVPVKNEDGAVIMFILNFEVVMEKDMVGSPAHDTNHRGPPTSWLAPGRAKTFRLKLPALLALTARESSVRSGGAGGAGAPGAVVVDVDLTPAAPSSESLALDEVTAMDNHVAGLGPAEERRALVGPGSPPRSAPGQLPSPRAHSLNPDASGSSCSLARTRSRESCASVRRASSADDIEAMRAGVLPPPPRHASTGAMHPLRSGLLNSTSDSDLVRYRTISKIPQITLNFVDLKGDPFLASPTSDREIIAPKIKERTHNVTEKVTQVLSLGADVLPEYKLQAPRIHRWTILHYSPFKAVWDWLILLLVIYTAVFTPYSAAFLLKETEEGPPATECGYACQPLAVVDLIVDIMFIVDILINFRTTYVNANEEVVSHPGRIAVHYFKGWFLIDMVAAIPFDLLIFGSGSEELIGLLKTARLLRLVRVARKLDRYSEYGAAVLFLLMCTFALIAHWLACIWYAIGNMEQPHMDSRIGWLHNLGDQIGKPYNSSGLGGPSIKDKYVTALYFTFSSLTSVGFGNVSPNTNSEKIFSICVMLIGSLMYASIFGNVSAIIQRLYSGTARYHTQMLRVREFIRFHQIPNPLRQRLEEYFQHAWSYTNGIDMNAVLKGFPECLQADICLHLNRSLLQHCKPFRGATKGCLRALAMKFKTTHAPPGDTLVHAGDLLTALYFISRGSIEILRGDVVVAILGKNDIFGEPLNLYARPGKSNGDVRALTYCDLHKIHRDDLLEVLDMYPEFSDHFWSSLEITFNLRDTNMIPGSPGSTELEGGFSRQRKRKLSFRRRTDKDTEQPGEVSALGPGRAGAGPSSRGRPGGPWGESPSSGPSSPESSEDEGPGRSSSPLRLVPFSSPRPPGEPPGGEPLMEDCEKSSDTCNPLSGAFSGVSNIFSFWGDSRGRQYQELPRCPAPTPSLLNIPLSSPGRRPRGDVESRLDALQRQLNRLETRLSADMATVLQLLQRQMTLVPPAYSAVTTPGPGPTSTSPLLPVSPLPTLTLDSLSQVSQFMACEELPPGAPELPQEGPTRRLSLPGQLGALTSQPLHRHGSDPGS
On the technique in general: The hERG channel carries a current that helps repolarise heart muscle cells.

Data set [5] concerns the target hERG (human ether-á-go-go-related gene) potassium channel (Homo sapiens (Human), UniProt Q12809). The data set is described as above. To be noted: PatchXpress, 5 minutes exposure, room temperature. The protocol: as §1
Data set [6] relates to T-tropic HIV. Briefly: Phenoscreen HIV entry inhibition assay. Conditions: Human immunodeficiency virus 1, read-out: IC50 for viral entry inhibition. The protocol: A selected set of compounds are tested for their ability to inhibit the cellular entry of T-tropic HIV. The assay for this inhibition is carried out on a contractual basis at Monogram Biosciences, Inc. using their well established Phenoscreen™ assay. Briefly, HIV strains of interest are tagged with a luciferase indicator gene to create an appropriate test vector. The test vector is amplified through transfection and the resulting virus is incubated in the presence of target host cells where intracellular […] activity then becomes a measure of infection. Amplified virus is exposed to target host cells in the presence of a range of test drug concentrations to determine IC50 measurements of entry inhibition. A modification of this test is further reapplied as a novel drug assay used in partnership with a number of pharmaceutical companies to test the effectiveness of novel entry inhibitors that target specific chemokines. It can used to detect activity against T-tropic, M-tropic, and dual-tropic viruses and Monogram Biosciences has a large bank of over 10,000 different virus strains to ultimately asses the range of applicability of our chemokine modulators. Certain compounds are tested to establish efficacy in a number of viral strains.

[7] abbreviates: CEM cells, SDF-1α challenge at EC80-EC90.

IC50, EC50 and inhibition data for 36 compounds are collected here from patent US9314468B2, “Chemokine receptor modulators” (Altiris Therapeutics, Inc., priority 2008, dated 2016).

The term IC50 denotes the concentration that inhibits the measured activity by half. One may read the EC50 as the concentration at which the effect is half-maximal. Broadly, the inhibition is the change of the read-out against control, counted positive when it falls.

Counter-ions that a name gives are not always drawn.

T1 sequence (P61073 whole entry): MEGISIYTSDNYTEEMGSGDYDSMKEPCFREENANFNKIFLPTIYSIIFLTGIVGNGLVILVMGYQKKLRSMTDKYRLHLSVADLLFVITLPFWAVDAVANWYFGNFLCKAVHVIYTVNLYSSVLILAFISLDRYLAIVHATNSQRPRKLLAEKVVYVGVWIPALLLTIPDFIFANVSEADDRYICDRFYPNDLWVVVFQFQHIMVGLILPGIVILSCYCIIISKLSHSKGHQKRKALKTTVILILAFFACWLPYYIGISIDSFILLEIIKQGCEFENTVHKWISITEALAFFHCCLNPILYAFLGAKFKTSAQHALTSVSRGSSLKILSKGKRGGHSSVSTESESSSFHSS
Chain of hERG (human ether-á-go-go-related gene) potassium channel (Q12809 whole entry): as the sequence (Q12809 whole entry) above

`NCCCCN(Cc1nccc2c3ccccc3n(CCN3CCOCC3)c12)C1CCCc2cccnc21` (stereo not drawn): the IC50 in data set [1] was determined as 7.7 nM.
With `NCCCCN(Cc1nccc2c3ccccc3n(CC(N)=O)c12)C1CCCc2cccnc21` (stereo not drawn), the IC50 in data set [1] was found to be 5.8 nM.
`NCCCCN(Cc1nccc2c3ccccc3n(CCCN)c12)[C@H]1CCCc2cccnc21` [drawing 827]: the IC50 in data set [2] (Table 9, selected compounds) was found to be 7 nM. The EC50 at 6 days in data set [3] worked out at 6400 nM. In data set [4], the inhibition at 5 min, 10 µM turned out to be 46%.
Regarding `O=C(O)Cn1c2ccccc2c2ccnc(CN(CCCN3CCNCC3)C3CCCc4cccnc43)c21` (stereo not drawn), the IC50 in data set [1] was found to be 26 nM.
On the same count and under the same terms, the figure for `NCCCCN(Cc1nccc2c3ccccc3n(CC(=O)N3CCOCC3)c12)C1CCCc2cccnc21` (stereo not drawn) is 5.6 nM.
In the case of `NCCCCN(Cc1nccc2c3ccccc3n(CCN3CCNCC3)c12)[C@H]1CCCc2cccnc21` [drawing 829], the IC50 in data set [2] (Table 9, selected compounds) amounted to 55 nM. The EC50 at 6 days in data set [3] is > 10000 nM. Moreover, the inhibition at 5 min, 10 µM in data set [4] came out at 45%.
With `NCCCCN(Cc1nccc2c3ccccc3n(CC(=O)O)c12)[C@H]1CCCc2cccnc21` [drawing 820], the IC50 was 22 nM in data set [2] (Table 9, selected compounds) and 2700 nM in data set [5]. In data set [3], this compound registered an EC50 at 6 days of 30000 nM.
On to `NCCCCN(Cc1nccc2c3ccccc3n(CC(=O)NC3CCNCC3)c12)C1CCCc2cccnc21` (stereo not drawn) [drawing 821], for which, in data set [2] (Table 9, selected compounds), the IC50 amounted to 126 nM. The EC50 at 6 days in data set [3] was 30000 nM. The inhibition at 5 min, 10 µM in data set [4] came out at 16%.
Regarding `c1ccc(-n2cc(CN(CCCCNCc3ccccn3)C3CCCc4cccnc43)nn2)cc1` (stereo not drawn) [AB, N1-((1-phenyl-1H-1,2,3-triazol-4-yl)methyl)-N4-(pyridin-2-ylmethyl)-N1-(5,6,7,8-tetrahydroquinolin-8-yl)butane-1,4-diamine hydrochloride], the IC50 in data set [6] is ≤ 10000 nM.
For the compound `O=C(O)Cn1c2ccccc2c2ccnc(CN(CCCN3CCNCC3)[C@H]3CCCc4cccnc43)c21` [drawing 828], the IC50 in data set [2] (Table 9, selected compounds) is 113 nM. Moreover, in data set [3], the EC50 at 6 days is > 10000 nM. In data set [4], the inhibition at 5 min, 10 µM stood at 20%.
In the case of `C[C@@H]1CN(C(=O)Cn2c3ccccc3c3ccnc(CN(CCCCN)[C@H]4CCCc5cccnc54)c32)C[C@H](C)O1` [drawing 826], the half-maximal inhibitory concentration (IC50) in data set [2] (Table 9, selected compounds) was 123 nM. This compound also returned a half-maximal effective concentration (EC50) at 6 days in data set [3] of 5300 nM. The compound also yielded an inhibition at 5 min, 1 µM in data set [4] of 18%.
For `NCCCCN(Cc1nccc2c3ccccc3n(CC(=O)NC3CCNCC3)c12)C1CCCc2cccnc21` (stereo not drawn) [drawing 814], in data set [1], the IC50 stood at 12 nM.
On the same count and under the same terms, the figure for `C[C@@H]1CN(C(=O)Cn2c3ccccc3c3ccnc(CN(CCCCN)C4CCCc5cccnc54)c32)C[C@H](C)O1` (stereo partly drawn) is 9.9 nM.
With `NCCCCN(Cc1nccc2c3ccccc3n(CC(N)=O)c12)[C@H]1CCCc2cccnc21` [drawing 832], the IC50 in data set [2] (Table 9, selected compounds) was determined as 18 nM; in data set [5] it was 1800 nM.
`CC(C)CN(CCC[C@H](NC1CCCc2cccnc21)C(=O)N[C@H](C)c1cccc2ccccc12)CC(C)C` (stereo partly drawn) [AY, (S)-5-(diisobutylamino)-N-((R)-1-(naphthalen-1-yl)ethyl)-2-(5,6,7,8-tetrahydroquinolin-8-ylamino)pentanamide trihydrochloride]: the IC50 in data set [6] is ≤ 10000 nM.
The same measure, in the same setting: the figure for `NCCCCN(Cc1cn(-c2ccccc2)nn1)C1CCCc2cccnc21` (stereo not drawn) [Z, N-(4-aminobutyl)-N-((1-phenyl-1H-1,2,3-triazol-4-yl)methyl)-5,6,7,8-tetrahydro-quinolin-8-amine tetrahydrochloride] is ≤ 10000 nM.
Turning to `NCCCCN(Cc1nccc2c3ccccc3n(CC(=O)N3CCOCC3)c12)[C@H]1CCCc2cccnc21` [drawing 819], the IC50 in data set [2] (Table 9, selected compounds) turned out to be 12 nM. This compound had an EC50 at 6 days in data set [3] of 30000 nM. In data set [4], this compound registered an inhibition at 5 min, 10 µM of 42%.
As for `CC(C)(C)OC(=O)Cn1c2ccccc2c2ccnc(CN(CCCN3CCNCC3)[C@H]3CCCc4cccnc43)c21` [drawing 825], the IC50 in data set [2] (Table 9, selected compounds) was 37 nM. The concentration for a half-maximal effect (EC50) at 6 days in data set [3] is 600 nM. This compound also gave an inhibition at 5 min, 1 µM in data set [4] of 26%.
Take `NCCCCN(Cc1cccc2cc[nH]c12)C1CCCc2cccnc21` (stereo not drawn) [B, N1-((1H-indol-7-yl)methyl)-N1-(5,6,7,8-tetrahydroquinolin-8-yl)butane-1,4-diamine]: the IC50 in data set [6] was ≤ 10000 nM.
For the compound `c1cnc2c(c1)CCCC2N(CCCN1CCNCC1)Cc1nccc2c3ccccc3n(CCN3CCOCC3)c12` (stereo not drawn) [drawing 830], the IC50 came out at 24 nM in data set [2] (Table 9, selected compounds) and 3100 nM in data set [5].
As to `CN1CCN(C(=O)Cn2c3ccccc3c3ccnc(CN(CCCCN)[C@H]4CCCc5cccnc54)c32)CC1` [drawing 823], the IC50 in data set [2] (Table 9, selected compounds) came to 30 nM. The EC50 at 6 days in data set [3] stood at 50000 nM. In addition, in data set [4], the inhibition at 5 min, 10 µM amounted to 39%.
Regarding `O=C(Cn1c2ccccc2c2ccnc(CN(CCCN3CCNCC3)C3CCCc4cccnc43)c21)N1CCOCC1` (stereo not drawn), the IC50 in data set [1] came to 15 nM.
`O=C(Cn1c2ccccc2c2ccnc(CN(CCCN3CCNCC3)[C@H]3CCCc4cccnc43)c21)C1CCOCC1`: the IC50 in data set [2] (Table 9, selected compounds) is 44 nM. In data set [3], this compound yielded an EC50 at 6 days of 30000 nM. In addition, the inhibition at 5 min, 10 µM in data set [4] was found to be 25%.
As for `NCCCCN(Cc1nccc2c3ccccc3n(CCCN3CCNCC3)c12)C1CCCc2cccnc21` (stereo not drawn), in data set [1], the IC50 amounted to 8.3 nM.
For `CN(Cc1nnc(-c2ccccc2)n1C)C1CCCc2cccnc21` (stereo not drawn) [BP, N-methyl-N-((4-methyl-5-phenyl-4H-1,2,4-triazol-3-yl)methyl)-5,6,7,8-tetrahydroquinolin-8-amine], in data set [6], the IC50 is ≤ 10000 nM.
As to `c1cnc2c(c1)CCCC2N(CCCN1CCNCC1)Cc1nccc2c3ccccc3n(CCN3CCOCC3)c12` (stereo not drawn) [drawing 811], the IC50 in data set [1] was determined as 9.3 nM.
Still for that read-out and setting: with `CN1CCN(C(=O)Cn2c3ccccc3c3ccnc(CN(CCCCN)C4CCCc5cccnc54)c32)CC1` (stereo not drawn) the figure was 11 nM; with `NCCCCN(Cc1nccc2c3ccccc3n(CCN3CCNCC3)c12)C1CCCc2cccnc21` (stereo not drawn), 5.7 nM.
Consider `C#CCn1c2ccccc2c2ccnc(CN(CCCCN)C3CCCc4cccnc43)c21` (stereo not drawn), for which the IC50 in data set [1] is 5.5 nM.
The same measure, in the same setting: with `NCCCCN(Cc1nccc2c3ccccc3n(CCCN)c12)C1CCCc2cccnc21` (stereo not drawn) the figure was 7.3 nM.
As for `NCCCCN(Cc1nccc2c1[nH]c1ccccc12)C1CCCc2cccnc21` (stereo not drawn) [A, N-((9H-pyrido[3,4-b]indol-1-yl)methyl)-N-(4-aminobutyl)-5,6,7,8-tetrahydroquinolin-8-amine tetrahydrochloride], the IC50 in data set [6] was ≤ 10000 nM.
`NCCCCN(Cc1nccc2c3ccccc3n(CCCN3CCNCC3)c12)[C@H]1CCCc2cccnc21` [drawing 822]: the IC50 in data set [2] (Table 9, selected compounds) turned out to be 16 nM; in data set [5], 4100 nM. The compound also returned an EC50 at 6 days in data set [3] of 30000 nM.
Consider `NCCCCN(Cc1nccc2c3ccccc3n(CC(=O)N3CCC(O)CC3)c12)C1CCCc2cccnc21` (stereo not drawn), for which the IC50 in data set [1] came to 12 nM.
Turning to `CN1CCN(CCCN(Cc2nccc3c4ccccc4n(CC(=O)N4CCOCC4)c23)[C@H]2CCCc3cccnc32)CC1`, the IC50 in data set [2] (setting [7]) was 628 nM.
The same measure, in the same setting: the figure for `c1cnc2c(c1)CCC[C@@H]2N(CCCCNCC1CC1)Cc1nccc2c1[nH]c1ccccc12` is 451 nM.
As to `CN(Cc1nccc2c3ccccc3n(CCCCN3C(=O)c4ccccc4C3=O)c12)[C@H]1CCCc2cccnc21`, the inhibition at 1 µM in data set [2] (CCRF-CEM, read-out: % inhibition at 1 μM) was determined as 32%.
